Source: US8936808B1, “Opioid agonist/opioid antagonist/acetaminophen combinations” (Purdue Pharma L.P., priority 1997, dated 2015)
“Also recorded” adds a separate entry of the source. Where two headings read alike, the source gives them in different places.

What was measured:
[1] = format: in vivo
Text: In certain other preferred embodiments, the opioid included in the dosage form is a different orally active opioid agonist than hydrocodone. […] Equianalgesic dosages of various opioid analgesics are provided below, and are otherwise known to those skilled in the art, e.g, from Foley, K. “The Treatment of Cancer Pain;” N. Engl.
In certain preferred embodiments, the opioid agonist is hydrocodone. Equianalgesic doses of the remaining opioids mentioned herein (and others) are known to those skilled in the art.

[2] = test system: precipitated withdrawal / subjective effects of hydrocodone; assay: Example 3: precipitated withdrawal in morphine dependent volunteers receiving hydrocodone 30 mg and naltrexone oral solution; format: in vivo, human
[3] = cited from earlier work
[4] = test system: opioid agonist properties of hydrocodone; assay: Example 1: naltrexone antagonism of hydrocodone 15 mg (VAS drug effect, pupillometry), four-way crossover study
Experimental: All treatments were administered under fasted conditions. […] Subjects were randomly assigned to four treatment sequences of the four treatment groups. […] Safety measurements consisted of reports of adverse events, vital signs, abnormal laboratory values, abnormal physical examination and ECG results. Pharmacodynamic parameters (pupil size and Modified Specific Drug Effect Questionnaire) were also assessed.
Pupil Size—Measured by Pupillometry.
The camera was centered in front of the subject's face with 3 inch frame against the lateral orbital rims and the eyes occupying the very top of the field (to minimize upgaze). The subject was asked to look just over the camera body and to fixate on a non-accommodative target in the distance, thereby minimizing the near reflex. With the volunteer fixing in the distance, the photo was taken. All photographs were taken in constant ambient light. The pupillary latency was such that the flash will not affect pupillary diameter. […] Development of the print for the recommended length of time (approximately one (1) minute, varying with ambient temperature) will produce a one-to-one photograph of the volunteer's midface, with the pupils at the top of the print. Horizontal pupillary diameter is then measured using a simple plus magnifier with a built-in reticule calibrated to 0.1 millimeter. Only the left eye was used to measure pupillary effects at each time period specified in the protocol. • b. A Modified Specific Drug Effect Questionnaire. […] The present questionnaire consisted of 10 items rated by the subject 10 minutes prior to blood sampling. The item is related to signs of opiate agonist drugs and was as follows: Subject questions: 1) do you feel any effects from the drugs?, 2) does your skin feel itchy?, 3) do you feel relaxed?, 4) do you feel sleepy?, 5) do you feel drunk?, 6) do you feel nervous?, 7) do you feel full of energy?, 8) do you feel you need to talk?, 9) do you feel sick to your stomach?, 10) do you feel dizzy? The subject then rated the item by placing a vertical mark along a 100 mm visual analog scale (VAS) anchored on one end by “not at all” and at the other end by “an awful lot”.

[5] = cited from earlier work; remark: listed apart in the source
[6] = cited from earlier work; remark: listed apart in the source
[7] = test system: effects of morphine-like opioid agonist / heroin; settings: cited from earlier work
[8] = test system: opioid agonist effects of hydrocodone; assay: Example 2: ratio of oral naltrexone to oral hydrocodone, ten-period crossover (VAS drug effect, pupil diameter); format: in vivo, human
Experimental: All treatments were administered under fasted conditions. […] Subjects were randomly assigned to ten treatment sequences of the ten treatment groups.
The fast continued for an additional four (4) hours post-dose.
All samples were collected within ±2 minute of the scheduled time.

mu over delta sites = settings: cited from earlier work
[9] = in comparison to a 15 mg dose of hydrocodone
[10] = 15 mg hydrocodone (HYIR/APAP) with increasing doses of naltrexone, range 0 mg-12.8 mg
[11] = 6.4-mg naltrexone dose, hydrocodone 15 mg

Compound: COc1ccc2c3c1O[C@H]1[C@@H](O)C=C[C@H]4[C@@H](C2)N(C)CC[C@@]341 [Codeine]
- Equianalgesic Doses of Opioids, Calculated Dose [1, 9]: 90.0 mg

Compound: COc1ccc2c3c1OC1C(=O)CC[C@H]4[C@@H](C2)N(C)CC[C@]314 (stereo partly drawn) [Hydrocodone, 4,5-epoxy-3-methoxy-17-methylmorphinan-6-one]
- Equianalgesic Doses of Opioids, Calculated Dose [1, 9]: 15.0 mg
- onset of effect ([2]; in combination with naltrexone): < 0.5 h
- relative analgesic potency versus oral morphine ([3]; in vivo, po): about two times
- pupillary constriction ([4]; hydrocodone 15 mg plus naltrexone placebo): most pupillary constriction

Compound: CN1CC[C@]23CCCC[C@H]2[C@H]1Cc1ccc(O)cc13 [Levorphanol]
- Equianalgesic Doses of Opioids, Calculated Dose [1, 9]: 1.8 mg

Compound: CCC(=O)C(CC(C)N(C)C)(c1ccccc1)c1ccccc1 (stereo not drawn) [Methadone]
- Equianalgesic Doses of Opioids, Calculated Dose [1, 9]: 9.0 mg

Compound: CN1CC[C@]23c4c5ccc(O)c4O[C@H]2[C@@H](O)C=C[C@H]3[C@H]1C5 [Morphine]
- Equianalgesic Doses of Opioids, Calculated Dose ([1]; in vivo): 27.0 mg

Compound: COc1ccc2c3c1O[C@H]1C(=O)CC[C@@]4(O)[C@@H](C2)N(C)CC[C@]314 [Oxycodone]
- Equianalgesic Doses of Opioids, Calculated Dose [1, 9]: 13.5 mg

Compound: CC(=O)Nc1ccc(O)cc1 [acetaminophen]
- solubility in water [5]: only poorly soluble in water

Compound: C[C@H]1[C@H]2Cc3ccc(O)cc3[C@]1(C)CCN2CC1CC1 [cyclazocine]
- duration of action after oral doses [6]: ~24 h

Compound: CN1CC[C@]23c4c5ccc(O)c4O[C@H]2[C@@H](O)C=C[C@H]3[C@H]1C5.O=S(=O)(O)O [morphine sulphate]
- oral hydrocodone dose equivalent to 15 mg i.m. ([3]; 15 mg i.m.): 30 mg

Compound: C=CCN1CC[C@]23c4c5ccc(O)c4O[C@H]2C(=O)CC[C@@]3(O)[C@H]1C5 [naloxone]
- block of the effect of 25 mg of heroin ([7]; 1 mg intravenously): completely block
- effect on morphine-like opioid agonist effects ([7]; 0.4-0.8 mg intramuscularly or intravenously in man): prevent or promptly reverse

Compound: O=C1CC[C@@]2(O)[C@H]3Cc4ccc(O)c5c4[C@@]2(CCN3CC2CC2)[C@H]1O5 [naltrexone]
- drug effect VAS score [8, 10]: overall decrease
- pupillary constriction / pupil diameter [8, 10]: decrease in pupillary constriction; also recorded: increase in pupil diameter
- antagonism of the 15 mg hydrocodone dose ([8]; approximately 0.4 mg naltrexone): minimally antagonized
- effect of the hydrocodone dose ([8]; naltrexone dosages above 0.4 mg): increasing diminution
- precipitated withdrawal (abstinence) ([2]; naltrexone 1 and 2 mg with hydrocodone 30 mg, first protocol): slight abstinence
- subjective experience of hydrocodone on addition of naltrexone ([2]; physically dependent subjects, hydrocodone 30 mg): decreased the favorable subjective experience of hydrocodone
- effect on opioid agonist effects of 25 mg intravenous heroin challenge ([7]; 50 mg given 24 hours prior to challenge): completely blocked or attenuated
- blocking action, receptor preference (mu over delta sites): strong preferential blocking action against mu over delta sites
- block of the opioid effect (VAS drug effect) of hydrocodone [4, 11]: not completely blocked
- block of the pupillary constriction of hydrocodone [4, 11]: not completely blocked
- antagonism of hydrocodone-induced pupillary constriction, relation to dose ([4]; naltrexone 3.2 and 6.4 mg with hydrocodone 15 mg, FIG. 2): dose-response effect
- antagonism of hydrocodone-induced VAS drug effect, relation to dose ([4]; naltrexone oral solution 3.2 and 6.4 mg with hydrocodone 15 mg, FIG. 1): dose-response effect

Compound: Meperidine
- Equianalgesic Doses of Opioids, Calculated Dose [1, 9]: 135.0 mg
